# Reference: publication PMC12615753, “Glutathione as a taste modulator: molecular mechanisms of interaction with umami and sweet taste receptors” (Food Chemistry: Molecular Sciences, 2025)
# How the values were obtained:
# Assay type in all cases: cell-based, human, rat
# hTAS1R2/rTAS1R3(Mut2) = molecular target: T1, hTAS1R2/rTAS1R3(Mut2) (UniProt Q8TE23+Q923K1, L72W/P67S/S282A/Y281H); test: Calcium assay, mutated rTAS1R3 co-expressed with hTAS1R2
# T1 construct: The cDNA coding region of rTAS1R3 was synthesized with optimized-codon usage for human expression; expressed in transfected cells
# hTAS1R1 E301A/rTAS1R3 = molecular target: T2, hTAS1R1 E301A/rTAS1R3 (UniProt Q7RTX1+Q923K1, E301A); test: cell-based; settings: for response to the agonist alone, vs WT: E301A
# T2 construct: UniProtKB number Q7RTX1–1); The cDNA coding region of rTAS1R3 was synthesized with optimized-codon usage for human expression; expressed in transfected cells; host or cells: HEK293T/17
# T2 sequence (Q7RTX1 21-841 E301A): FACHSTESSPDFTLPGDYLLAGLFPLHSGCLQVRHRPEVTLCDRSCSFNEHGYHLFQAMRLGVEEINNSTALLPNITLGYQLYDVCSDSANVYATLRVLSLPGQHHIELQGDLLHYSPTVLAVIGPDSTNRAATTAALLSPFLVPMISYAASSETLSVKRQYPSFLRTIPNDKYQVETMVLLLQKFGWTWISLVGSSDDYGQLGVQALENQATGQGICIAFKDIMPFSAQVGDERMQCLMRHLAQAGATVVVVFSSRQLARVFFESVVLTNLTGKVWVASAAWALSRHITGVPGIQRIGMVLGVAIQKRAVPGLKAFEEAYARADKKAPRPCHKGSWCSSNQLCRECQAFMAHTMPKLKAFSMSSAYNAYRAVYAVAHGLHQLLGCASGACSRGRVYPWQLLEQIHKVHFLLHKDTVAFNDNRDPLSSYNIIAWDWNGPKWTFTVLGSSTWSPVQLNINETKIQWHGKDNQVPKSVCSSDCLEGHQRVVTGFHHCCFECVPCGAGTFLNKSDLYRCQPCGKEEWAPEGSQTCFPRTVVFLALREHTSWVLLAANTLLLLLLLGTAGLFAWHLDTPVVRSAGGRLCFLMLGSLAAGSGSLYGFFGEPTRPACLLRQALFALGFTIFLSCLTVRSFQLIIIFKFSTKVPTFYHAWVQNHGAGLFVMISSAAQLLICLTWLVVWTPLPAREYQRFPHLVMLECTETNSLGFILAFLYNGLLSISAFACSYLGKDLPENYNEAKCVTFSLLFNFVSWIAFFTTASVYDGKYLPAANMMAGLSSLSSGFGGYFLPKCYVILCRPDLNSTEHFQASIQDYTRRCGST
# T2 sequence (Q923K1 21-858): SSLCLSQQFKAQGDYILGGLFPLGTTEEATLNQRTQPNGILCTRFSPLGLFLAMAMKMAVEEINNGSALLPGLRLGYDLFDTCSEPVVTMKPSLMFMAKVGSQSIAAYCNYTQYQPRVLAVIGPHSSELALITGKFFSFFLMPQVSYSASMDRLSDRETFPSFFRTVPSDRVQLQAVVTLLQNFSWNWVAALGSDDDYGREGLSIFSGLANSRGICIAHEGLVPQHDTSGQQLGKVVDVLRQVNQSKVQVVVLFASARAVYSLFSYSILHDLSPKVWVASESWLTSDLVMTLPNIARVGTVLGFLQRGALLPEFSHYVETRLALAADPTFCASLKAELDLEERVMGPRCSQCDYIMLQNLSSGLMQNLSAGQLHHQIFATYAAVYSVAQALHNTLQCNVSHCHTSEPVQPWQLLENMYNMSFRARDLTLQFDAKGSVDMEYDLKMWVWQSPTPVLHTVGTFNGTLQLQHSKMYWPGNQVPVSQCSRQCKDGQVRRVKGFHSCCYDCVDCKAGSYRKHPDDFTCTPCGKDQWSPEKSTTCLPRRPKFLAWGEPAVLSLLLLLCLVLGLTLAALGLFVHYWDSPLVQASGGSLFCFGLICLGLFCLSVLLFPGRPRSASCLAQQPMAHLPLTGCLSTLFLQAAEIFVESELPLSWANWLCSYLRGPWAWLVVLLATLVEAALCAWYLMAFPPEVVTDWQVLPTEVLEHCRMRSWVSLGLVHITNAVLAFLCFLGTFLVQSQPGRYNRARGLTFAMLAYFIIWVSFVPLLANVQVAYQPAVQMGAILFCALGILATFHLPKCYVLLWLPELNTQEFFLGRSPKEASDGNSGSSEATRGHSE
# From the text: Chimeric Gα proteins, such as Gα16Gust44, Gα16Gi3 or Gα15i2, are widely used in the functional expression of TAS1R receptors ([Backes et al., 2015]; [Suess et al., 2015]; [Toda et al., 2021], [Toda et al., 2013], [Toda et al., 2018]; [Zhang et al., 2008]). Chimeric Gα15i2 (([Toda et al., 2013]), Supplementary data) was generated by replacing the last five residues of the C-terminal tail of rat Gα15i2 (EINLL) (UniProt number G3V6N8; https://www.uniprot.org/uniprot/) with the counterpart sequence from human GNAI2 (DCGLF) (UniProt number P04899-1) and cloning into the pcDNA3.1/Hygro vector (Invitrogen, Thermo Fisher Scientific, Illkirch, France) between the HindIII and NotI restriction sites, resulting in the plasmid pcDNA3.1-Gα15i2. Chimeric Gα16Gust44 construct have already been reported ([Raliou et al., 2011]). Briefly, Gα16Gust44 was generated by replacing the C-terminal of Gα16 with the C-terminal 44 residues of gustducin. As previously described, hTAS1R1 was amplified from human fungiform papillae cDNA and cloned and inserted into pcDNA3 (Invitrogen), generating pcDNA3-TAS1R1-WT (wild-type) ([Raliou et al., 2011]). […] The cDNA coding region of rTAS1R3 was synthesized with optimized-codon usage for human expression (Genewiz) and was cloned and inserted into the mammalian pcDNA4/myc-HisA (Invitrogen) expression vector between the EcoRI and NotI restriction sites, resulting in the plasmid pcDNA4-rTAS1R3. […] The sequence integrity of all the plasmid constructs was verified via automated DNA sequencing (Genewiz).
# The hTAS1R1 mutants were co-expressed with the rTAS1R3 subunit in HEK293 cells. […] As a control, the functionality of the mutated receptors was checked after stimulation with S807 (Fig. S8), which interacts with TAS1R1-TMD ([Zhang et al., 2008]).
# hTAS1R2/rTAS1R3(Mut1) = molecular target: T3, hTAS1R2/rTAS1R3(Mut1) (UniProt Q8TE23+Q923K1, A277V/L68N/R278H/S168G/S302A); test: Calcium assay, mutated rTAS1R3 co-expressed with hTAS1R2
# T3 construct: The cDNA coding region of rTAS1R3 was synthesized with optimized-codon usage for human expression; expressed in transfected cells
# T3 sequence (Q8TE23 20-839, stated change not applied): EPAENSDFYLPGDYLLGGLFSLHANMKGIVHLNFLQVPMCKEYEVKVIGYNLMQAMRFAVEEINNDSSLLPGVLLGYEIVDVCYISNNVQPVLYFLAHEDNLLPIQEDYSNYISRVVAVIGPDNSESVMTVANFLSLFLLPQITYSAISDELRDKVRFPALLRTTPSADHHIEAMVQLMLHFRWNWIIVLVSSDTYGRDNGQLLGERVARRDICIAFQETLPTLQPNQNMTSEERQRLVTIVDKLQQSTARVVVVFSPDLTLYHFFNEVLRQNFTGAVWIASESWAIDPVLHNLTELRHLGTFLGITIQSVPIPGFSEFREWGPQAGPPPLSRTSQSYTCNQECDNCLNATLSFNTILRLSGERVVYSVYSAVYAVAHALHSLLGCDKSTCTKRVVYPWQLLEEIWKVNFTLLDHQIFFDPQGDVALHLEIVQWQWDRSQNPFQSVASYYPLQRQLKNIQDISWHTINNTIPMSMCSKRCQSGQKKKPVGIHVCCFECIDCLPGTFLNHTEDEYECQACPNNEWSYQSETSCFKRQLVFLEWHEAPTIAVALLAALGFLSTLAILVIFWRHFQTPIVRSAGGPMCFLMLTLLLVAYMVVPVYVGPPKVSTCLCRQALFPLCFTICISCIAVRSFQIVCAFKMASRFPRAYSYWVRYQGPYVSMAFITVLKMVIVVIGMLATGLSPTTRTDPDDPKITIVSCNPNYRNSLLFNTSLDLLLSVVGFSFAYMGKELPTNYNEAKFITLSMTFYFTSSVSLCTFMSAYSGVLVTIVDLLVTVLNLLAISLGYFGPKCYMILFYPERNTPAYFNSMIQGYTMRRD
# T3 sequence (Q923K1 21-858 L68N/S168G/A277V/R278H/S302A): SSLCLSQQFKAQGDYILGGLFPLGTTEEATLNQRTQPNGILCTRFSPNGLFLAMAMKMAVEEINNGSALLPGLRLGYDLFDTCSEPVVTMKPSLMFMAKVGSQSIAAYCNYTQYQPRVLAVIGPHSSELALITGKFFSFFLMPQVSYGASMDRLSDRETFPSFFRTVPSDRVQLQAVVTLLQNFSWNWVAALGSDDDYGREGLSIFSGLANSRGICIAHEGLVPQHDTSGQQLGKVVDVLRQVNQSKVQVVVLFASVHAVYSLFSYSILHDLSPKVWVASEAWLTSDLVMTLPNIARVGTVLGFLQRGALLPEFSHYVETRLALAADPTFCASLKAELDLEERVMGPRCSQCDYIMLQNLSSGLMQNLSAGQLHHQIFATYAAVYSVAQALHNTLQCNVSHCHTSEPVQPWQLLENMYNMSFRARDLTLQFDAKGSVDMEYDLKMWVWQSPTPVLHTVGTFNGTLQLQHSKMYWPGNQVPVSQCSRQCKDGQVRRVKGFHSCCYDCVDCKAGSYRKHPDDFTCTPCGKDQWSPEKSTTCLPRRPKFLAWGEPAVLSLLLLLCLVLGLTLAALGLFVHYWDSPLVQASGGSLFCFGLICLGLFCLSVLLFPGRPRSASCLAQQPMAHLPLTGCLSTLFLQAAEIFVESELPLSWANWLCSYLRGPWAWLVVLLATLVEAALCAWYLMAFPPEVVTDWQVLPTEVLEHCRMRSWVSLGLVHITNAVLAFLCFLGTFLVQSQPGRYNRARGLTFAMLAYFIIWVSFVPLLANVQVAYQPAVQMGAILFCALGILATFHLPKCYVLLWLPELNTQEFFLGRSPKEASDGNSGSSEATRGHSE
# Method: HEK293T/17 cells (ATCC CRL-11268) were seeded into clear bottom black 96-well plates coated with poly-D-lysine at a density of 32500 cells/well in 100 μL of DMEM containing 4.5 g/L glucose and supplemented with penicillin/streptomycin, 2 mM GlutaMAX and 10 % dialyzed fetal bovine serum. The plates were incubated for 24 h at 37 °C and 7.3 % CO2 in a humidified atmosphere. After incubation, using Fugene® 4 K (0.46 μL/well, Promega, Illkirch, France), the cells were transiently transfected with pcDNA3-hTAS1R1-WT (60 ng/well) or TAS1R1 mutants, pcDNA4-rTAS1R3 (60 ng/well), pcDNA3-Gα15i2 (10 ng/well), and pGP-CMV-GCaMP6s (Addgene #40753; 10 ng/well) as a genetically encoded calcium indicator. […] After 20 s of basal fluorescence calcium measurement, the cells were stimulated via automatic injection of a range of compounds in eight wells, and the signal emission was recorded for an additional 70 s, via a FlexStation 3® fluorometric microplate reader (Molecular Devices, San Jose, CA, USA). […] The emitted fluorescence was measured at a wavelength of 510 nm after excitation at 488 nm. […] For each well, the decrease in the raw fluorescence as the relative fluorescence changed was calculated as ΔF/F0. Replicates were averaged for the wells subjected to the same stimuli, the background signal was subtracted, and the fluorescence changes in mock-transfected cells were subtracted. […]
# T1 sequence (Q8TE23 20-839): as the sequence (Q8TE23 20-839, stated change not applied) above
# T1 sequence (Q923K1 21-858 P67S/L72W/Y281H/S282A): as the sequence (Q923K1 21-858 L68N/S168G/A277V/R278H/S302A) above, with P47S, N48L, L52W, G148S, V257A, H258R, Y261H, S262A, A282S counted along it
SMILES,effect of 10 mM GSH on the response to sucralose (hTAS1R2/rTAS1R3(Mut2)),EC50 (hTAS1R1 E301A/rTAS1R3),"response to the agonist alone, vs WT (hTAS1R1 E301A/rTAS1R3)",effect of 10 mM GSH on the response to sucralose (hTAS1R2/rTAS1R3(Mut1)),"EC50 (hTAS1R2/rTAS1R3(Mut2); sucralose alone, Fig. 4A)","EC50 (hTAS1R2/rTAS1R3(Mut1); sucralose alone, Fig. 4A)"
"N[C@@H](CCC(=O)N[C@@H](CS)C(=O)NCC(=O)O)C(=O)O [GSH, γ-L-glutamyl-L-cysteinyl-glycine]",not increased,> 30000 µM,fully abolished,not increased,–,–
"N[C@@H](CCC(=O)O)C(=O)O [L-Glu, L-glutamic acid, reference compound]",–,–,completely suppressed,–,–,–
"OC[C@H]1O[C@H](O[C@]2(CCl)O[C@H](CCl)[C@@H](O)[C@@H]2O)[C@H](O)[C@@H](O)[C@H]1Cl [sucralose, reference compound]",–,–,–,–,493 ± 114 µM,283 ± 55 µM
